Measurements taken from patent US5917053A, “Indole-2,3-dione-3-oxime derivatives, their preparation and use” (Neurosearch A/S, priority 1994, dated 1999).
pIC50: −log10 of the molar value.

Key:
AMPA receptor = AMPA receptor affinity (receptor binding, as described by T. Honore et al.); conditions: Neuroscience Letters 54, 27-32 (1985)
Source text: In Vitro activity (receptor affinity):
The compounds of the present invention has been tested for their affinity for the AMPA receptor as described by T. Honore et al., Neuroscience Letters 54, 27-32 (1985). IC50 values appear from the following Table 1.

[1] = test system: cultured mouse cerebral cortex neurons; test: Inhibition of stimulated 3H-GABA release from cultured cerebral cortex neurons; format: cell-based; conditions: Cerebral cortex neuron, 37° C., pH 7.4, stimulated 30 sec every 4 min
Source text: The compounds of the invention have also been tested for their ability to inhibit GABA release from cultured mouse cerebral cortex neurons using the following test:
Background: Neurons which express receptors for excitatory amino acids can be depolarized by such compounds and this depolarization will ultimately lead to a release of transmitter substance from the neurons. Cultured neurons obtained from 15-day-old mouse embryo cortex are mainly GABAergic and express all types of excitatory amino acid receptors. This means that they can be stimulated by high potassium or by the excitatory amino acids, NMDA, AMPA and kainate to release their neurotransmitter GABA.
^3 H-GABA may be used to label the GABA transmitter pool in the neurons and the release of ^3 H-GABA from the neurons may be used as a simple functional model for studies of the effects of excitatory amino acids and their antagonists.
Method: Cerebral cortices of 16-day-old mouse embryos are chopped in 0.4×0.4 mm cubes. The tissue is dissociated by mild trypsinization (0.1% (wt/vol) trypsin, 37° C., 15 min) and subsequently inoculated into poly-L-lysine-coated 3-cm Petri dishes containing a slightly modified DMEM (24.5 mM KCI, 30 mM glucose) supplemented with p-aminobenzoate (7 μM), insulin (100 mU/L) and 10% (vol/vol) horse serum. Cells are maintained in culture for 5-7 days with the addition of the antimitotic agent cytosine arbinoside (40 μM) from day 2 in vitro to prevent glial profileration. For further details and references, see Drejer et al. Exp. Brain Res. 47, 259 (1982).
Release experiments are performed using the model described by Drejer et al. Life Sci. 38, 2077 (1986). Cerebral cortex neurons cultured in Petri dishes (30 mm) are added 100 μM γ-vinyl-GABA one hour before the experiment in order to inhibit degradation of GABA in the neurons. 30 min before the experiment 5 μCi ^3 H-GABA is added to each culture and after this preloading period the cell monolayer at the bottom of the dish is covered with a piece of nylon mesh to protect the cells against mechanical damage and to facilitate dispersion of medium over the cell layer. The preloading medium is removed and the Petri dishes are placed in a superfusion system consisting of a peristaltic pump continously delivering thermostated 37° C. superfusion medium HEPES buffered saline (HBS): 10 mM HEPES, 135 mM NaCl, 5 mM KCl, 0.6 mM MgSO4, 1.0 mM CaCl2 and 6 mM D-glucose; pH 7.4) from a reservoir to the top of the slightly tilted Petri dish. The medium is continously collected from the lower part of the dish and delivered to a fraction collector. Initially, the cells are superfused with HBS for 15 min (flow rate 2 ml/min). Then the cells are stimulated for 30 sec every 4 min by changing the superfusion medium from HBS to a corresponding medium containing […].
Test subtances are dissolved in 50% DMSO, 48% ethanol. The final DMSO and ethanol concentration in the assay must not exceed 0.1%.
The stimulated release of ^3 H-GABA (cpm) are corrected for the mean basal release(cpm) before and after stimulation.
The stimulated release in the presence of antagonists are expressed relative to the stimulated release and the IC50 value for the antagonist is calculated (the concentration (μM) of the test substance which inhibit 50% of the stimulated ^3 H-GABA release).

Gerbils = test: Transient Forebrain Ischemia Model (2-VO Gerbils), global ischaemia, hippocampal damage; format: in vivo, gerbil; conditions: 30 mg/kg bolus i.v. followed by one hour infusion of 30 mg/kg (total 60 mg/kg) after 4 min occlusion; read four days later; Mann-Whitney Rank Sum Test
Protocol: The compound, 8-methyl-5-(4-(N,N-dimethylsulphamoyl)phenyl)-6,7,8,9-tetrahydro-1H-pyrrolo[3,2-h]isoquinoline-2,3-dione-3-O-(N-ethylcarbamoyl)oxime has also been tested in the following animal moder of global ischaemia:
Transient Forebrain Ischemia Model (2-VO Gerbils)
Gerbils were anaesthetized with halothane, right and left carotid arteries located and occluded for 4 minutes. Animals were kept warm before and after the operation using heating lamps. During the operation the gerbils were placed on heating plates, body temperature controlled and maintained at 37±0.5° C. Postocclusion, the gerbils were divided in two groups. One group received 30 mg/kg test compound as a bolus injection i.v. followed by a one hour infusion of 30 mg/kg test compound (total dose was 60 mg/kg). The control group received 0.9% NaCl in the same infusion volume as the treated group. Four days later, the animals were sacrificed, brains removed and cooled to -70° C. Thereafter, the brains were sectioned in […] thick sections of which 5-7 with hippocampal tissue were selected and stained with hematoxylin eosine (HE).
Based upon the degree of hippocampal damage, each hippocampus was categorised into one of four groups (Group 1: no damage in the CA1-layer; Group 2: the CA1-layer partly damaged; Group 3: the CA1-layer completely damaged; and Group 4: damage in more than just the CA1-layer). […]

Row | pIC50 (AMPA receptor) | pIC50 [1] | SMILES | neuroprotective effect in the gerbil 2-VO model (ischemic score, hippocampal damage) (Gerbils)
1 | 6.82 | 5.54 | CC(=O)ON=C1C(=O)Nc2c1cc(-c1ccccc1)c1c2CN(C)CC1 [8-methyl-5-phenyl-6,7,8,9-tetrahydro-1H-pyrrolo[3,2-h]isoquinoline-2,3-dione-3-O-acetyloxime] | 
2 | 7.85 |  | CN1CCc2c(-c3ccc(S(=O)(=O)N(C)C)cc3)cc3c(c2C1)NC(=O)C3=NOC(=O)NC1CCCCC1 [8-methyl-5-(4-(N,N-dimethylsulphamoyl)phenyl)-6,7,8,9-tetrahydro-1H-pyrrolo[3,2-h]isoquinoline-2,3-dione-3-O-(N-cyclohexylcarbamoyl)oxime] | 
3 | 7.42 | 6.72 | CCNC(=O)ON=C1C(=O)Nc2c1cc(-c1ccc(S(=O)(=O)N(C)C)cc1)c1c2CN(C)CC1 [8-methyl-5-(4-(N,N-dimethylsulphamoyl)phenyl)-6,7,8,9-tetrahydro-1H-pyrrolo[3,2-h]isoquinoline-2,3-dione-3-O-(N-ethylcarbamoyl)oxime] | significant neuroprotective effect
4 | 6.72 | < 5.52 | CN1CCc2c(-c3ccccc3)cc3c(c2C1)NC(=O)C3=NOC(=O)C(C)(C)C [8-methyl-5-phenyl-6,7,8,9-tetrahydro-1H-pyrrolo[3,2-h]isoquinoline-2,3-dione-3-O-pivaloyloxime] | 
5 | 6.46 | 5.85 | CCNC(=O)ON=C1C(=O)Nc2c1cc(-c1ccccc1)c1c2CN(C)CC1 [8-methyl-5-phenyl-6,7,8,9-tetrahydro-1H-pyrrolo[3,2-h]isoquinoline-2,3-dione-3-O-(N-ethylcarbamoyl)oxime] | 
6 | 5.77 | 5.57 | CCN1Cc2c(-c3ccccc3)cc3c(c2C1)NC(=O)C3=NOC(C)=O [7-ethyl-5-phenyl-1,6,7,8-tetrahydrobenzo[2,1-b:3,4-c]dipyrrole-2,3-dione 3-O-acetyloxime] | 
